Experimental data published in ChEMBL document CHEMBL1122602, “2-Acetylpyridine thiosemicarbazones. 8. Derivatives of 1-acetylisoquinoline as potential antimalarial agents” (1984).

Tests used:
Type in all cases: functional
[1] = system: Mus musculus; experiment: Antimalarial activity was assessed against Plasmodium berghei in mice (Mus musculus) at 160 mg/kg dosage of the compound; Cure
[2] = system: Mus musculus; experiment: Antimalarial activity was assessed against Plasmodium berghei in mice (Mus musculus) at 320 mg/kg dosage of the compound; Cure
[3] = system: Mus musculus; experiment: Antimalarial activity was assessed against Plasmodium berghei in mice (Mus musculus) at 640 mg/kg dosage of the compound; Cure
[4] = system: Mus musculus; experiment: Increase in mean survival time in mice inoculated with Plasmodium berghei days was reported following 40 mg/kg.
[5] = system: Mus musculus; experiment: Antimalarial activity was assessed against Plasmodium berghei in mice (Mus musculus). Increase in mean survival time in days was reported, at 80 mg/kg dosage of the compound.
[6] = system: Mus musculus; experiment: Antimalarial activity was assessed against Plasmodium berghei in mice (Mus musculus) at 40 mg/kg dosage of the compound; Cure
[7] = system: Mus musculus; experiment: Antimalarial activity was assessed against Plasmodium berghei in mice (Mus musculus) at 80 mg/kg dosage of the compound; Cure
[8] = system: Mus musculus; experiment: Antimalarial activity was assessed against Plasmodium berghei in mice (Mus musculus). Increase in mean survival time in days was reported at 160 mg/kg dosage of the compound.
[9] = system: Mus musculus; experiment: Antimalarial activity was assessed against Plasmodium berghei in mice (Mus musculus). Increase in mean survival time in days was reported at 640 mg/kg dosage of the compound.
[10] = system: Mus musculus; experiment: Antimalarial activity was assessed against Plasmodium berghei in mice (Mus musculus). Increase in mean survival time in days was reported at 320 mg/kg dosage of the compound.
[11] = system: Mus musculus; experiment: Antimalarial mice (Mus musculus) at 320 mg/kg dosage of the compound; Cure

Structure (SMILES) | No. of cures [1] [count] | No. of cures [2] [count] | No. of cures [3] | Increase in mean survival time [4] [days] | Increase in mean survival time [5] [days] | No. of cures [6] [count] | No. of cures [7] | Mean survival time [8] [days] | Mean survival time [9] [days] | Mean survival time [10] [days] | No. of cures [11] [count]
C/C(=N\N=C(/S)N1CCC(c2ccccc2)CC1)c1nccc2ccccc12 | 1 | 1 | 4 | 2.7 | 5.7 | – | – | – | – | – | –
C/C(=N\N=C(/S)N(C)C1CCCCC1)c1nccc2ccccc12 | 3 | 3 | – | 9.5 | 7.9 | – | – | – | – | – | –
C/C(=N\N=C(/S)N1CC(C)OC(C)C1)c1nccc2ccccc12 (stereo not given) | 3 | 3 | 1 | 3.5 | 8.6 | – | – | – | – | – | –
CC(N/N=C(\S)N1CCC(c2ccccc2)CC1)c1nccc2ccccc12 (stereo not given) | 2 | 1 | 4 | 1.6 | 1 | – | – | – | – | – | –
C/C(=N\N=C(/S)N1CC2CCC(CC2)C1)c1nccc2ccccc12 | 5 | 5 | 5 | – | – | 2 | 3 count | – | – | – | –
C/C(=N\N=C(/S)N1CCCCCC1)c1nccc2ccccc12 | 1 | 2 | 1 | 7.8 | 6.9 | – | – | – | – | – | –
C/C(=N\N=C(/S)N1CCC(C)CC1)c1nccc2ccccc12 | 2 | – | – | 1 | – | – | 1 count | – | – | – | –
CC(N/N=C(\S)N(C)C1CCCCC1)c1nccc2ccccc12 (stereo not given) | 2 | 1 | 1 | – | – | 2 | 3 count | – | – | – | –
CC1CN(/C(S)=N/NC(C)c2nccc3ccccc23)CC(C)O1 (stereo not given) | 2 | 3 | 2 | 5.9 | 5.7 | – | – | – | – | – | –
CC(N/N=C(\S)N(C)C)c1nccc2ccccc12 (stereo not given) | 2 | – | – | 6.2 | – | – | – | – | – | – | –
C/C(=N\N=C(/S)N(C)C)c1nccc2ccccc12 | – | – | – | 7.3 | – | – | 1 | 9.2 | – | – | –
CC(N/N=C(\S)N1CCCC1)c1nccc2ccccc12 (stereo not given) | 3 | 3 | 1 | 5.1 | 7.1 | – | – | – | – | – | –
C/C(=N\N=C(/S)N1CCCC1)c1nccc2ccccc12 | 2 | 2 | – | 3.5 | 2 | – | – | – | – | – | –
CC(N/N=C(\S)NCc1ccccc1)c1nccc2ccccc12 (stereo not given) | – | – | – | 0.3 | – | – | – | 0.9 | 0.1 | – | –
CC(N/N=C(\S)N1CCN(c2ccccn2)CC1)c1nccc2ccccc12 (stereo not given) | – | – | 3 | 1.6 | 2.7 | – | – | 6.6 | – | 7.7 | –
CC1CCN(/C(S)=N/NC(C)c2nccc3ccccc23)CC1 (stereo not given) | 3 | – | – | 7.6 | 8.9 | – | – | – | – | – | –
C/C(=N\N=C(/S)NCc1ccccc1)c1nccc2ccccc12 | – | – | – | 0.1 | – | – | – | 0.9 | 0.5 | – | –
CC(N/N=C(\S)N1CC2CCC(CC2)C1)c1nccc2ccccc12 (stereo not given) | 5 | 4 | 3 | 9.7 | – | – | 1 count | – | – | – | –
CC(N/N=C(\S)N1CCCCCC1)c1nccc2ccccc12 (stereo not given) | 3 | – | 2 | 5.1 | 7.1 | – | – | – | – | – | 2
